The target of assay [1] is human GABAA α1β3γ2 receptor (Homo sapiens (Human), UniProt P14867+P18507). Nature of the assay: Radioligand binding assay, competition for [3H]Flumazenil, γ2-containing GABAA subtypes. Particulars: for γ2/γ1 Selectivity Ratio: Ki α1β3γ2 (nM)/Ki α2β2γ1 (nM); for LogSel: Log[Ki α1β3γ2 (nM)/Ki α2β2γ1 (nM)]. Here is the method: Membrane Preparation and Binding Assay for γ2-containing GABAA Subtypes
The affinity of compounds at GABAA γ2 subunit-containing receptors was measured by competition for [^3H]Flumazenil (81.1 Ci/mmol; Roche) binding to HEK293F cells expressing human (transiently transfected) receptors of composition α1β3γ2.
Harvested pellets from HEK293F cells expressing the different GABAA γ2 receptor subtypes were resuspended in Mannitol Buffer pH 7,2-7,4 and processed as described above for the cells expressing the GABAA γ1 subunit-containing receptors.
Assays were incubated to equilibrium for 1 hour at 4° C, and harvested onto GF/C uni-filters (Packard) by filtration using a Packard harvester and washing with ice-cold wash buffer (50 mM Tris; pH 7.5). After anhydrousing, filter-retained radioactivity was detected by liquid scintillation counting. Ki values were calculated using Excel-Fit (Microsoft) and are the means of two determinations.

Assay [2] addresses human GABAA α5β2γ1 receptor (Homo sapiens (Human), UniProt P31644+Q8N1C3). Description: Radioligand binding assay, competition for [3H]RO7239181, γ1-containing GABAA subtypes. Particulars: membranes from HEK293F cells, mean of two determinations. Here is the method:
(§1) Membrane Preparation and Binding Assay for γ1-containing GABAA Subtypes
The affinity of compounds at GABAA γ1 subunit-containing receptors was measured by competition for [^3H]RO7239181 (67.3 Ci/mmol: Roche) binding to membranes from HEK293F cells (ThermoFisher R79007) expressing human (transiently transfected) receptors of composition α5β2γ1, α2β2γ1, α1β2γ1. For better protein expression of the α2 subunit-containing receptors, the 28 amino acid long signal peptide (Metl to Ala28) of the human GABAA α2 subunit was substituted by the 31 amino acid long signal peptide (Met1 to Ser31) of human GABAA α5 subunit.
(§2) Harvested pellets from HEK293F cells expressing the different GABAA receptor subtypes were resuspended in Mannitol Buffer pH 7.2-7.4 (Mannitol 0.29 M, Tricthylamine 10 mM. Acetic acid 10 mM. EDTA 1 mM plus protease inhibitors (20 tablets Complete. Roche Diagnostics Cat. No. 05 056 489 001 per liter)), washed two times and then resuspended at 1:10 to 1:15 dilution in the same buffer. Cell disruption was performed by stirring the suspension in a Parr vessel #4637 at 435 psi for 15 minutes, and then the suspensions were centrifuged at 1000×g for 15 minutes at 4° C. (Beckman Avanti J-HC: rotor JS-4.2). The supernatant (S1) was transferred in a 21 Schott flask and the pellet (P1) was resuspended with Mannitol Buffer up to 175 ml. The resuspended pellet was transferred into a 250 ml Corning centrifugal beaker and centrifuged at 1500 ×g for 10 minutes at 4° C. (Beckman Avanti J-HC: rotor JS-4.2). The supernatant (S1) was then transferred in the 21 Schott flask and the pellet was discarded. The supernatants (S1) were centrifuged in 500ml Beckman polypropylene centrifugal beaker at 15 000×g for 30 minutes at 4° C. (Beckman Avanti J-20 XP; rotor JLA-10.500). The pellet (P2) was resuspended with Mannitol Buffer 1:1 and frozen at −80° C. The supernatant (S2) was centrifuged in 100 ml Beckman polypropylene centrifugal tubes at 48000×g for 50 minutes at 4 °C (Beckman Avanti J-20 XP: rotor JA-18). The supernatant (S3) was discarded and the pellet (P3) was resuspended with 1:1 Mannitol Buffer. The P2 and P3 protein concentration was determined with the BIORAD Standard assay method with bovine serum albumin as standard and measured on the NANO-Drop 1000. The membrane suspension was aliquots (500μl per tube) and stored at −80° C. until required.
(§3) Membrane homogenates were resuspended and polytronised (Polytron PT1200E Kinematica AG) in Potassium Phosphate 10 mM, KCl 100 mM binding buffer at pH 7.4 to a final assay concentration determined with a previous experiment.
(§4) Radioligand binding assays were carried out in a volume of 200 μL (96-well plates) which contained 100 μL of cell membranes. [^3H]RO7239181 at a concentration of 1.5 nM (α5β2γ1) or 20-30 nM (α1β2γ1, α2β2γ1) and the test compound in the range of [0.3-10000]33 10^−9 M. Nonspecific binding was defined by 10×10^6 (α5β2γ1) and 30×10^6 M RO7239181 and typically represented less than 5% (α5β2γ1) and less than 20% (α1β2γ1, α2β2γ1) of the total binding. Assays were incubated to equilibrium for 1 hour at 4° C. and then, membranes were filtered onto unifilter (96-well white microplate with bonded GF/C filters preincubated 20-50 minutes in 0.3% Polyethylenimine) with a Filtermate 196 harvester (Packard BioScience) and washed 4 times with cold Potassium Phosphate 10 mM pH 7.4. KCl 100 mM binding buffer. After anhydrousing, filter-retained radioactivity was detected by liquid scintillation counting. Ki values were calculated using Excel-Fit (Microsoft) and are the means of two determinations.
Representative test results, obtained by the above described assay measuring binding affinity to HEK293 cells expressing human (h) receptors, are shown in the Table 1.

Assay [3] addresses human GABAA α2β2γ1 receptor (Homo sapiens (Human), UniProt P47869+Q8N1C3). The description is as above. Here is the method: as §1
(§5) The affinity of compounds at GABAA γ1 subunit-containing receptors was measured by competition for [^3H]RO7239181 (67.3 Ci/mmol: Roche) binding to membranes from HEK293F cells (ThermoFisher R79007) expressing human (transiently transfected) receptors of composition α5β2γ1, α2β2γ1, α1β2γ1.
as §2, §3
as §4, with “[^3H]RO7239181 at a concentration of 1.5 nM (α5β2γ1) or 20-30 nM (α1β2γ1, α2β2γ1) and the test compound in the range of [0.3-10000]33 10^−9 M. Nonspecific binding was defined by 10×10^6 (α5β2γ1) and 30×10^6 M RO7239181 and typically represented less than 5% (α5β2γ1) and less than 20% (α1β2γ1, α2β2γ1) of the total binding.” left out

In assay [4] the target is h-GABA-A α2β2γ1 receptor expressed in Xenopus laevis oocytes (Homo sapiens (Human), UniProt P47869+Q8N1C3). Description: Two-electrode voltage clamp electrophysiology in Xenopus oocytes expressing GABAA receptors. The assay is classed as cell-based. Particulars: reference PAMs, GABA EC20. From the text:
Functional Expression of GABAA Receptors:
Xenopus Oocytes Preparation
Xenopus laevis oocytes at maturation stages V-VI were used for the expression of cloned mRNA encoding GABAA receptor subunits. Oocytes ready for RNA micro-injection were bought from Ecocyte, Castrop-Rauxel, Germany and stored in modified Barth's medium (composition in mM: NaCl 88, KCl 1, NaHCO3 2.4, HEPES 10, MgSO4 0.82, CaNO3 0.33, CaCl2 0.33, pH=7.5) at 20 C. until the experiment.
Xenopus Oocytes Microinjection
Oocytes were plated in 96-well plates for microinjection using the Roboinject automated instrument (MultiChannelSystems, Reutlingen, Germany). Approximately 50 nL of an aqueous solution containing the RNA transcripts for the subunits of the desired GABAA receptor subtype was injected into each oocyte. […] Oocytes were kept in modified Barth's medium (composition in mM: NaCl 88, KCl 1, NaHCO3 […], HEPES 10, MgSO4 0.82, CaNO3 0.33, CaCl2 0.33, pH=7.5) at 20° C. until the experiment.
Electrophysiological experiments were performed using the Roboocyte instrument (MultiChannelSystems, Reutlingen, Germany) on days 3 to 5 after the micro-injection of mRNA. During the experiment the oocytes were constantly superfused by a solution containing (in mM) NaCl 90, KCl 1, HEPES 5, MgCl: 1, CaCl, 1 (pH 7.4). Oocytes were impaled by two glass microelectrodes (resistance: 0.5-0.8 MS2) which were filled with a solution containing KCl 1M +K-acetate 1.5 M and voltage-clamped to −80 mV. The recordings were performed at room temperature using the Roboocyte two-electrode voltage clamp system (Multichannelsystem). After an initial equilibration period of 1.5 min GABA was added for 1.5 min at a concentration evoking approximately 20% of a maximal current response (EC20). After another rest interval of 2.5 min GABA was again added evoking a response of similar amplitude and shape. […] Current traces were recorded at a digitization rate of 10 Hz during and shortly before and after the GABA application.
Each compound and concentration was tested on at least 3 oocytes. Different oocytes were used for different compound concentrations.
For the analysis, the digitized current traces of the first and second GABA response were superimposed and, if necessary, rescaled to equal maximal amplitudes. The ratio between the two responses during the time interval of test compound application was calculated point by point. The extremum of the resulting “ratio trace” was taken as the efficacy (“Fold increase”) of the compound expressed as “% modulation of GABA EC” (100* (Fold increase-1)).

Assay [5] addresses human GABAA α1β2γ1 receptor (Homo sapiens (Human), UniProt P14867+Q8N1C3). Nature of the assay: Radioligand binding assay, competition for [3H]RO7239181, γ1-containing GABAA subtypes. On the procedure:
as §1, §5, §2, §3
as §4, with “[^3H]RO7239181 at a concentration of 1.5 nM (α5β2γ1) or 20-30 nM (α1β2γ1, α2β2γ1) and the test compound in the range of [0.3-10000]33 10^−9 M. Nonspecific binding was defined by 10×10^6 (α5β2γ1) and 30×10^6 M RO7239181 and typically represented less than 5% (α5β2γ1) and less than 20% (α1β2γ1, α2β2γ1) of the total binding.” left out

The values that follow come from US20240190889A1, “NEW CYCLOPENTA-THIENO-DIAZEPINE DERIVATIVES AS GABA A GAMMA1 POSITIVE ALLOSTERIC MODULATORS” (Hoffmann-La Roche Inc., priority 2021, published 2024).

Read-outs that look alike come from different tables or passages of the source.

With `Cc1nnc2n1-c1ccc(Cl)cc1C(c1ccccc1)=NC2` [Alprazolam, reference compound], in assay [1], the “γ2/γ1 Selectivity Ratio” value stood at 0.0050 and the LogSel is recorded as −2.3.

Turning to `C[C@@H]1N=C(c2c(F)cccc2F)c2c(sc3c2C[C@H](C(F)F)C3)-n2c(CO)cnc21` [Example 22, [(7S,13S)-13-(difluoromethyl)-9-(2,6-difluorophenyl)-7-methyl-16-thia-2,5,8-triazatetracyclo [8.6.0.02,6.011,15]hexadeca-1(10),3,5,8,11(15)-pentaen-3-yl]methanol], the Ki stood at 44.3 nM in assay [2]; 10.2 nM in assay [3]; 10.2 nM in assay [3] (read-out: Ki h-GABAA α2β2γ1, membranes from HEK293F cells, [3H]RO7239181 20-30 nM, mean of two determinations); 2510 nM in assay [1]. For the same molecule, in assay [1], the LogSel came out at 1.75.

For `CN1C(=O)CN=C(c2ccccc2F)c2cc([N+](=O)[O-])ccc21` [Flunitrazepam, reference compound], the “potentiation of the GABA-induced current in α2β2γ1 GABAA receptor subtype expressing oocytes” value (shortened to “potentiation of the GABA-induced current”) in assay [4] was roughly 60%.

`Cc1ncc2n1-c1ccc(Cl)cc1C(c1ccccc1F)=NC2` [Midazolam, reference compound]: in assay [1], the “γ2/γ1 Selectivity Ratio” value amounted to 0.0068 and the LogSel is on record as −2.2. The “potentiation of the GABA-induced current” value in assay [4] was roughly 60%.

As for `Cc1nnc2n1-c1sc3c(c1C(c1ccccc1Cl)=NC2)CCC3` [RE-A, reference compound], the Ki in assay [3] was 17.5 nM. Besides, in assay [1], the Ki was 6.6 nM, the “γ2/γ1 Selectivity Ratio” value came to 0.38 and the LogSel is recorded as −0.42.

Consider `CCOC(=O)C1Cc2sc3c(c2C1)C(c1ccccc1Cl)=NCc1nnc(C)n1-3` (centres unmarked) [RE-B, reference compound], for which the Ki in assay [3] was 734 nM. In assay [1] (HEK293F cell membranes, [3H]Flumazenil 1 nM, mean of two determinations, read-out: Ki h-GABAA α1β3γ2), the Ki came out at 1220 nM. Also, in assay [1], the “γ2/γ1 Selectivity Ratio” value was 1.66 and the LogSel was 0.22.

`Cc1nnc2n1-c1sc3c(c1C(c1c(F)cccc1F)=N[C@H]2C)CCC3` [RE-C, (7S)-9-(2,6-difluorophenyl)-3,7-dimethyl-16-thia-2,4,5,8-tetrazatetracyclo [8.6.0.02,6.011,15]hexadeca-1(10),3,5,8,11(15)-pentaene, reference compound]: the Ki in assay [3] stood at 20.4 nM. The molecule further returned a Ki in assay [5] of 2.59 nM. In addition, in assay [1], the affinity, expressed as Ki, was 17.2 nM; the “γ2/γ1 Selectivity Ratio” value worked out at 0.84; the LogSel was −0.07.

For the molecule `Cc1nnc2n1-c1ccc(Cl)cc1C(c1ccccc1Cl)=NC2` [Triazolam, reference compound], in assay [1], the LogSel is −1.5. Further, in assay [4], the “potentiation of the GABA-induced current” value is recorded as roughly 60%.

What is called Ki is a measure of affinity in units of concentration, obtained from inhibition or displacement.
